Earlier results, collected in paper PMC10443619 (ACS chemical biology, 2023).

Tests used:
tau [1] = details: compared with YM-01
tau [2] = tested on: tau
tau [3] = details: compared with MKT-077
[4] = not given; remark: listed apart in the source

Substance	half-life (t1/2) [min]	potency to prevent cellular tau accumulation (tau [1])	total tau in organotypic brain slices (tau [2]; rTg4510 mice)	potency to prevent tau accumulation in HeLaC3 cells (tau [3])	blood-brain permeability [4]	pathogenic tau in ex vivo brain slices (tau [2]; transgenic rTg4510 mice)
JG-98	37	greater potency to prevent cellular tau accumulation than YM-01	reduced total tau			
YM-01				enhanced the potency to prevent tau accumulation	lacked detectable blood-brain permeability	reduced pathogenic tau
